# Literature values, collected in patent US20100215763A1, “Method of using the body's alternative cellular energy pigments (ACE-pigments) in the therapy of diseases” (priority 2009, published 2010).
# Tested on: HSV and HZV skin lesions
smiles,measurement,setting,value
Cc1cc2nc3ccc(N(C)C)cc3nc2cc1N.Cl [neutral red],healing of treated HSV and HZV skin lesions,neutral red applied to active lesions followed by UV illumination,expedited healing
same,healing of distant HSV lesions,"patients with lesions at more than one location, neutral red and UV limited to a single lesion",expedited healing in all lesions
